Experimental data published in PubChem BioAssay (NCI).
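Protocol summary: plate cells (96-well), add compound at 5 concentrations, incubate 48 h, interpolate endpoints linearly. Here, GI50 denotes the concentration required for 50% inhibition of growth. TGI: concentration producing complete growth inhibition.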

Legend:
Assay in all cases: NCI tumour cell line growth inhibition, 48 h
[1] = tested on: DU-145 prostate
[2] = tested on: EKVX NSCLC
[3] = tested on: MOLT-4 leukemia
[4] = tested on: HS 578T breast
[5] = tested on: A498 renal
[6] = tested on: OVCAR-4 ovarian
[7] = tested on: M14 melanoma
[8] = tested on: NCI-H23 lung
[9] = tested on: OVCAR-5 ovarian
[10] = tested on: SNB-75 CNS

SMILES | GI50 [1] [µM] | TGI [1] [µM] | GI50 [2] [µM] | TGI [2] [µM] | GI50 [3] [µM] | TGI [3] [µM] | GI50 [4] [µM] | TGI [4] [µM] | GI50 [5] [µM] | TGI [5] [µM] | GI50 [6] [µM] | TGI [6] [µM] | GI50 [7] [µM] | TGI [7] [µM] | GI50 [8] [µM] | TGI [8] [µM] | GI50 [9] [µM] | TGI [9] [µM] | GI50 [10] [µM] | TGI [10] [µM]
COC(=O)[C@]12CC[C@@H](C)[C@H](C)[C@@H]1C1=CC[C@@H]3[C@@]4(C)C[C@@H](O)[C@H](O)[C@@](C)(CO)[C@@H]4[C@H](O)C[C@@]3(C)[C@]1(C)CC2 | 16.4 | 31.8 | 13.4 | 31.4 | 4.58 | 25.6 | 18.5 | 45.8 | 16.6 | 30.9 | 12.1 | 32.8 | 12.8 | 29.4 | 16.8 | 36.6 | 17.9 | 36.4 | 12.3 | 28.1
O=C1CSC(=S)N1/N=C/c1ccc(Cl)c([N+](=O)[O-])c1 |  | > 100 |  | 76.9 |  | > 100 |  | > 100 |  | > 100 |  | 50.7 |  | 40.6 |  | 31.9 |  | > 100 |  | > 100
O=C1OCC2=C1C(c1cccc(Br)c1)c1cc3c(cc1N2CCO)OCCO3 (configuration not stated) | 0.107 | 0.752 | 1.3 | 48.7 | 0.225 | > 42.2 | 0.0715 | > 21.3 | 0.0167 | 0.466 | 0.131 | > 50 | 0.0421 | 0.453 | 0.0911 | > 44.5 | 0.221 | > 33.7 | 0.0397 | > 35.4
c1ccc(-c2n(Cc3ccc4ccccc4n3)cc[n+]2Cc2ccc3ccccc3c2)cc1 | 2.7 | 11.3 | 2.33 | 12.8 | 1.64 | 4.38 | 1.94 | 6.31 | 1.16 | 4.79 | 0.366 | 6.13 | 1.25 | 3.35 | 0.731 | 4.87 | 2.05 | 7.27 | 0.624 | 3.15
CCCCCCCCCCSC(=N)N (tested in a mixture with another compound) | 4.47 | 16.1 | 6.89 | 23.7 | 1.85 | 5.51 | 8.03 | 29.5 | 6.55 | 19.7 | 3.44 | 16 | 1.87 | 3.85 | 11.1 | 25.9 | 13.1 | 32.7 | 1.42 | 3.43
CCOc1ccc(NC2=CC(=O)C(=O)c3ccccc32)cc1 |  | 5.05 |  | 30.9 |  | 80.1 |  | 5.9 |  | 12.2 |  | 7.8 |  | 3.27 |  | 3.93 |  | 9.46 |  | 5.35
CC(=O)OC1(C)N=NC2(CCCCC2)O1 (configuration not stated) |  | > 100 |  | > 100 |  | > 100 |  | > 100 |  | > 100 |  | > 100 |  | > 100 |  | > 100 |  | > 100 |  | > 100
O=C(Nc1nn2c(-c3cc(C(F)(F)F)cc(C(F)(F)F)c3)nnc2s1)C1CCCC1 | 1.95 | > 100 | 0.366 | > 25.2 | 0.643 | 4.53 | 0.706 | > 100 | 0.255 | 2.92 | 0.748 | > 37.9 | 0.957 | > 100 | 0.394 | > 100 | 2.63 | > 100 | 1.43 | > 28.2
CN1CCN(C(=O)COc2ccc(C34CC5CC(CC(C5)C3)C4)cc2)CC1 | 19 | 55.7 | 24.6 | > 100 | 13.2 | 94.9 | 15.6 | 45.6 | 15.2 | 30.5 | 20.8 | 76.9 | 15.3 | 30.7 | 15.3 | 36.7 | 17.6 | 44.6 | 14.1 | 29.3
COC(=O)/C=C/c1cc(OC(C)=O)c2c(c1)[C@@H](C(=O)OC)[C@H](c1ccc(OC(C)=O)c(OC(C)=O)c1)O2 | 0.0636 |  | 2.38 | > 94.3 | 0.09 | > 55 | 0.0343 | 17.7 | 1.01 | 7.97 | 0.34 | 38.2 | 0.0338 | 39 | 0.0912 | 29.7 | 0.95 | > 100 | 0.0191 | 1.48
c1ccc(Nc2ncc(-c3ccccc3)o2)cc1 | > 25 | > 25 | > 25 | > 25 | > 25 | > 25 | 11.5 | > 25 | > 24 | > 25 | > 21.1 | > 25 | > 25 | > 25 | > 25 | > 25 | > 25 | > 25 | > 24.1 | > 25
CC[C@@H](c1ccc(O)c(O)c1)[C@@H](CC)c1ccc(O)c(O)c1 | 12.9 | 26.2 | 13.4 | 29.4 | 4.21 | 22.5 | 73.3 | > 100 | 44.4 | > 100 | 4.6 | 39.3 | 3.59 | 13.5 | 14.2 | 31.8 | 19.5 | 37.8 | 17.7 | 41.6
COc1ccccc1NC(=O)c1cc2cc(Br)ccc2cc1O | 3.28 | 14 | 1.77 | 8.1 | 2.7 | 17.3 | 2.61 |  | 2.96 | 11 | 3.11 | 21.4 | 3.01 | 11.9 | 2.19 | 8.71 | 3.48 | 12.9 | 2.12 | 8.89
Cc1cc2c(cc1C)[n+](=O)c(C(=O)c1ccccc1)c(C(F)F)n2[O-] | 10.5 | 46.4 | 9.43 | 44.6 | 8.02 | 43.1 | 32 | > 100 | 24.5 | 91.1 | 14.2 | > 100 | 16.9 | > 100 | 26.3 | > 100 | 36.4 | > 100 | 60.9 | > 100
CC1(C)[C@@H](NOCCCN)CC[C@]2(C)[C@H]3C(=O)C=C4[C@@H]5C[C@](C)(C(=O)O)CC[C@]5(C)CC[C@@]4(C)[C@]3(C)CC[C@@H]12 | 4.63 | 15.4 | 14 | 44.8 | 4.63 | 43 | 4.23 | 50 | 17.8 | 43 | 8.69 | 34.8 | 8.46 | 28.8 | 10.7 | 64.7 | 14.1 | 28.1 | 12 | 42.4
O=C(NC1CCCCC1)NS(=O)(=O)c1ccc(N2N=C3c4ccccc4CC3C2c2ccc(Cl)cc2)cc1 (configuration not stated) | 5.5 | 21.1 | 5.38 | 22.8 | 4.04 | 19.4 | 4.61 | 37.2 |  | 9.2 | 38.5 | > 100 | 10.8 | 24.4 | 12.2 | 36.2 | 25.5 | 80.4 | 13.2 | 85.9
C=C1C(=O)O[C@H]2[C@H]1CC/C(CNC(=O)c1cc3ccccc3[nH]1)=C\CC[C@@]1(C)O[C@@H]21 | 0.575 | 1.87 | 2.11 | 8.04 | 1.6 | 4.55 | 6.62 | 38.7 | 3.15 | 6.69 | 1.73 | 5.53 | 1.12 | 2.81 | 1.68 | 4.26 | 2.37 | 6.26 | 6.98 | 21
COc1c2ccccc2c(OC)c2[nH]c(=O)ccc12 | 1.54 | 3.32 | 2.83 | > 100 | > 21.5 | > 100 | 2.68 | 20.7 | 2.04 | 4.75 | 11.1 | > 100 | 0.843 | 2.37 | 0.925 | 3.47 | 8.02 | > 85.4 | 3.2 | > 21.9
COCCn1cc(-c2nc(-c3cc4cccnc4[nH]3)cs2)c2cc(OC)ccc21 | 3.96 | 56.1 | 0.0827 | 4.43 | 4.24 | > 46.7 | 1.99 | 6.78 | 1.86 | 6.18 | 0.0278 | > 30.8 | 4.8 | > 100 | 1.5 | 10.8 | 0.524 | > 96.4 | 1.22 | 5.83
C[C@@H]1CC[C@H]2C(C)(C)[C@H]3C[C@@]12CC[C@@]3(C)O |  | > 100 |  | > 100 |  | > 100 |  | > 100 |  | > 100 |  | > 100 |  | > 100 |  | > 100 |  | > 100 |  | > 100
